Assay results reported in patent publication US11834453B2, “Substituted pyrimido[5,4-d]pyrimidines as HER2 inhibitors” (Array BioPharma Inc., priority 2020, dated 2023).
Where two headings read alike, the source gives them in different places.

Columns and labels:
[1] = molecular target: ErbB2 insYVMA (HER2-YVMA, SEQ ID NO: 2) (Homo sapiens, UniProt P04626, INS775YVMA/P1170A); test: biochemical; conditions: ErbB2 insYVMA enzyme assay
[2] = molecular target: ErbB2 WT (Homo sapiens (Human), UniProt P04626); test: ErbB enzyme assay (CisBio HTRF KinEASE-TK), Assay 2; assay type: biochemical
Method: Compound potencies were determined using CisBio's HTRF Kinease-TK assay technology. The kinases were incubated with 250 nM TK-substrate biotin (CisBio, part of cat #62TK0PEC) at 1 mM ATP along with test compounds in a buffer consisting of 25 mM HEPES, pH 7.4, 10 mM MgCl2, 0.01% Triton X-100, and 2% DMSO in a volume of 8 μL. […] After 30-minute incubation at 22° C., the reaction was quenched by adding 8 μL of quench solution containing 62.5 nM Sa-XL665 and 0.25× TK-Ab-Cryptate in HTRF detection buffer (all from CisBio, part of cat #62TK0PEC). After a 1-hour incubation at 22° C., the extent of reaction was determined using a PerkinElmer EnVision multimode plate reader via HTRF dual wavelength detection, and the percent of control (POC) was calculated using a ratiometric emission factor. One hundred POC was determined using DMSO only samples (no compound present), and 0 POC was determined using pre-quenched control reactions.
(§1) Enzyme lots and concentration used are in Table 2.

[3] = molecular target: EGFR (Homo sapiens (Human), UniProt P00533); test: ErbB enzyme assay (CisBio HTRF KinEASE-TK), Assay 3; assay type: biochemical
Method: Compound potencies were determined using CisBio's HTRF Kinease-TK assay technology. The kinases were incubated with 250 nM TK-substrate biotin (CisBio, part of cat #62TK0PEC) at 1 mM ATP along with test compounds in a buffer consisting of 25 mM HEPES, pH 7.4, 10 mM MgCl2, 0.01% Triton X-100, and 2% DMSO in a volume of 8 μL. Compounds were prepared as a three-fold serial dilution in DMSO and added to the assay to give the appropriate final concentration. After 30-minute incubation at 22° C., the reaction was quenched by adding 8 μL of quench solution containing 62.5 nM Sa-XL665 and 0.25× TK-Ab-Cryptate in HTRF detection buffer (all from CisBio, part of cat #62TK0PEC). After a 1-hour incubation at 22° C., the extent of reaction was determined using a PerkinElmer EnVision multimode plate reader via HTRF dual wavelength detection, and the percent of control (POC) was calculated using a ratiometric emission factor. One hundred POC was determined using DMSO only samples (no compound present), and 0 POC was determined using pre-quenched control reactions. A 4-parameter logistic curve was fit to the POC values as a function of the concentration of compound, and the IC50 value was the point where the best-fit curve crossed 50 POC.
as §1

[4] = molecular target: ErbB2 with Exon 20 YVMA insertion (HER2-YVMA) (Homo sapiens (Human), UniProt P04626, INS775YVMA); test: Cellular phosphorylation assay, constitutive ErbB2 phosphorylation (Y1196) in engineered NIH 3T3 cells, Assay 4; assay type: cell-based
Method: Serially diluted compounds were added to the plates for 1 hour at 37° C./5% CO2. EGFR WT cells were stimulated with 100 ng/ml rEGF for an additional 10 minutes at 37° C./5% CO2. After compound incubation, medium was removed from the cells, which were then fixed in 3.7% formaldehyde in PBS at room temperature for 20 minutes. Following a wash with PBS, cells were permeabilized with 100% methanol at room temperature for 10 minutes. Cells were then washed with PBS/0.05% Tween-20 and blocked with Odyssey blocking buffer (LI-COR Biosciences) for at least 1 hour at room temperature. Antibodies to phosphorylated ErbB2 (Y1196, Cell Signaling #6942) or phosphorylated EGFR (Y1068, Cell Signaling #3777) and GAPDH (Millipore #MAB374) were added to the cells in blocking buffer containing 0.05% azide and incubated overnight at 4° C. After washing with PBS/0.05° i° Tween-20, the cells were incubated with fluorescently labeled secondary anti-rabbit antibody (LiCOR, IRDye 800CW #926-32211) and anti-mouse antibody (Molecular Probes, Alexa Fluor 680 #A21058) for 1 hour at room temperature in the dark. Cells were then washed and analyzed for fluorescence at both wavelengths using the Odyssey Infrared Imaging System (LI-COR Biosciences). Phosphorylated ErbB2 and EGFR signal was normalized to GAPDH signal to generate curves and calculate IC50 values.

[5] = molecular target: EGFR wild type (EGFR WT) (Homo sapiens (Human), UniProt P00533); test: Cellular phosphorylation assay, EGF-stimulated EGFR phosphorylation in engineered NIH 3T3 cells, Phospho-EGFR DuoSet IC ELISA, Assay 5; assay type: cell-based
Method: NIH 3T3 cells were engineered to express EGFR wild type (EGFR WT; Assay 5, no footnote) with constructs obtained from GenScript and grown in DMEM supplemented with 10% fetal bovine serum and 15 μg/ml blasticidin. Cells were plated in 96-well plates at 20,000 cells/well and allowed to attach overnight at 37° C./5% CO2. Serially diluted compounds were added to the plates for 1 hour at 37° C./5% CO2. EGFR WT cells were stimulated with 100 ng/ml rEGF for an additional 10 minutes at 37° C./5% CO2. After compound incubation, medium was removed from the cells, which were then lysed in 100 μL/well lysis buffer according to the manufacturer's protocol (R&D Systems, DYC1095, Human Phospho-EGFR DuoSet IC ELISA). Same protocol was followed to determine the total levels of phospho-EGFR by measuring the optical density of each well using a VersaMax microplate reader. Curves were then generated and IC50 values calculated.

Chain of EGFR wild type (EGFR WT) (P00533 25-1210): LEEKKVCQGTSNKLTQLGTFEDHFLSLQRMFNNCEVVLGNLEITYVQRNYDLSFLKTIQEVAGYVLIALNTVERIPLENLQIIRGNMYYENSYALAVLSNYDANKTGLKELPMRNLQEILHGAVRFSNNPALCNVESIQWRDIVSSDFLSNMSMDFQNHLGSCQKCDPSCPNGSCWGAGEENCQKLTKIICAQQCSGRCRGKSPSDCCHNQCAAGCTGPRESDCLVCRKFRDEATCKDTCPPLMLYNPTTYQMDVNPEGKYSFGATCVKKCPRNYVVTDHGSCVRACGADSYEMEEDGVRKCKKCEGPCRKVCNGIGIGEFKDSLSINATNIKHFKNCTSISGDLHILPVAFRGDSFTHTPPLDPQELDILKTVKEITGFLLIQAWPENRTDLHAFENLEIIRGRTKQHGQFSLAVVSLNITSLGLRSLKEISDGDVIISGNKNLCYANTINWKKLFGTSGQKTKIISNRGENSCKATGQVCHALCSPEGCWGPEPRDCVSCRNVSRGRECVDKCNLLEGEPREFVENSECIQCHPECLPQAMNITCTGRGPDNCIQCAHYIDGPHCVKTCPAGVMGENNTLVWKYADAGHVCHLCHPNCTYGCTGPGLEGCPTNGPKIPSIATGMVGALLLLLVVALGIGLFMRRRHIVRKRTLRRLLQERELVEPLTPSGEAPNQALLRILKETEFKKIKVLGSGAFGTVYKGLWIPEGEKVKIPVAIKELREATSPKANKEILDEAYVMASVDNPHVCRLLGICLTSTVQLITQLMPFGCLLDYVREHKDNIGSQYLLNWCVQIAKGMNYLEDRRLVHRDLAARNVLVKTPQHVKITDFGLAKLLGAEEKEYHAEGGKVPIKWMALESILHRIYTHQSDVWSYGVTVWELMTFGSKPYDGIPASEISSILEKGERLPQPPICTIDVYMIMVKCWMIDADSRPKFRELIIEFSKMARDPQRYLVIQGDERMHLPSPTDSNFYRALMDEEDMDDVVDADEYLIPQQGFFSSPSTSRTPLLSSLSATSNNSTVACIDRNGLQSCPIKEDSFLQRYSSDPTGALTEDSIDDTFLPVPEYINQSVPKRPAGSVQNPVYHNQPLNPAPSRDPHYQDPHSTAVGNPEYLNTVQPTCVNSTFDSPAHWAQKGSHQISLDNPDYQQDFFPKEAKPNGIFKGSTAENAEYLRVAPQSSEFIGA
Chain of EGFR (P00533 25-1210): as above
Chain of ErbB2 WT (P04626 23-1255): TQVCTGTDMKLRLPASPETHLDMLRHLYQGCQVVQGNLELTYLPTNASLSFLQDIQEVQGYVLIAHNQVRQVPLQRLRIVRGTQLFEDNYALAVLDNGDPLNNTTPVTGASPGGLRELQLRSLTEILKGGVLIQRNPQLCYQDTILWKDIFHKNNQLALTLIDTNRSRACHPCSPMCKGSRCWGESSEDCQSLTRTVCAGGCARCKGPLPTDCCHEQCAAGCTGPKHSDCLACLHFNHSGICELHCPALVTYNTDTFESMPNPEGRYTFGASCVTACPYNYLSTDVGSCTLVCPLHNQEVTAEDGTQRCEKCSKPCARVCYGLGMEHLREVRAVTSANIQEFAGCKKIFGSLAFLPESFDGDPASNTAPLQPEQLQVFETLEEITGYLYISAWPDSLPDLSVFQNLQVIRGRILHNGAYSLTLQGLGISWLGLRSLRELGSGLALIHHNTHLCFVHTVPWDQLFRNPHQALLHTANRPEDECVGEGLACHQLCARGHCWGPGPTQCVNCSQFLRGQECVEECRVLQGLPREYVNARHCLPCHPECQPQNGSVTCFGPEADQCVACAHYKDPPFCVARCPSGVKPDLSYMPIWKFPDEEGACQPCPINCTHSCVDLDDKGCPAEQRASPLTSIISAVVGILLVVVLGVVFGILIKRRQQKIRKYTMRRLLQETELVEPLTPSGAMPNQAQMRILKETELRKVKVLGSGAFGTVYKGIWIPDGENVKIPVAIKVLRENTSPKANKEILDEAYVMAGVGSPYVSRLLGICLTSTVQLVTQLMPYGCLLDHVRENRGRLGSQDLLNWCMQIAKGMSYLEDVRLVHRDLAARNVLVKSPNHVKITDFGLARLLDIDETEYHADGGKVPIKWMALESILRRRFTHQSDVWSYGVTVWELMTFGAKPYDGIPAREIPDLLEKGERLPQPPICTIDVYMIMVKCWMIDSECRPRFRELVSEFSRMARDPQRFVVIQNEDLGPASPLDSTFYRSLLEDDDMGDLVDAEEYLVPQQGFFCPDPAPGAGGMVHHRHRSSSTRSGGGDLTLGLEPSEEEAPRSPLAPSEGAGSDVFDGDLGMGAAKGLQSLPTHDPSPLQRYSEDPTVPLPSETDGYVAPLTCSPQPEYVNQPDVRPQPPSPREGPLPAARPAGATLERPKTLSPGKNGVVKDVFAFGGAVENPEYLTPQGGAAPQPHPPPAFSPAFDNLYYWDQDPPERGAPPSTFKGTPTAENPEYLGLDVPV
Chain of ErbB2 with Exon 20 YVMA insertion (HER2-YVMA) (P04626 other isoform, or with tags, fused parts or gaps ins YVMA behind 775): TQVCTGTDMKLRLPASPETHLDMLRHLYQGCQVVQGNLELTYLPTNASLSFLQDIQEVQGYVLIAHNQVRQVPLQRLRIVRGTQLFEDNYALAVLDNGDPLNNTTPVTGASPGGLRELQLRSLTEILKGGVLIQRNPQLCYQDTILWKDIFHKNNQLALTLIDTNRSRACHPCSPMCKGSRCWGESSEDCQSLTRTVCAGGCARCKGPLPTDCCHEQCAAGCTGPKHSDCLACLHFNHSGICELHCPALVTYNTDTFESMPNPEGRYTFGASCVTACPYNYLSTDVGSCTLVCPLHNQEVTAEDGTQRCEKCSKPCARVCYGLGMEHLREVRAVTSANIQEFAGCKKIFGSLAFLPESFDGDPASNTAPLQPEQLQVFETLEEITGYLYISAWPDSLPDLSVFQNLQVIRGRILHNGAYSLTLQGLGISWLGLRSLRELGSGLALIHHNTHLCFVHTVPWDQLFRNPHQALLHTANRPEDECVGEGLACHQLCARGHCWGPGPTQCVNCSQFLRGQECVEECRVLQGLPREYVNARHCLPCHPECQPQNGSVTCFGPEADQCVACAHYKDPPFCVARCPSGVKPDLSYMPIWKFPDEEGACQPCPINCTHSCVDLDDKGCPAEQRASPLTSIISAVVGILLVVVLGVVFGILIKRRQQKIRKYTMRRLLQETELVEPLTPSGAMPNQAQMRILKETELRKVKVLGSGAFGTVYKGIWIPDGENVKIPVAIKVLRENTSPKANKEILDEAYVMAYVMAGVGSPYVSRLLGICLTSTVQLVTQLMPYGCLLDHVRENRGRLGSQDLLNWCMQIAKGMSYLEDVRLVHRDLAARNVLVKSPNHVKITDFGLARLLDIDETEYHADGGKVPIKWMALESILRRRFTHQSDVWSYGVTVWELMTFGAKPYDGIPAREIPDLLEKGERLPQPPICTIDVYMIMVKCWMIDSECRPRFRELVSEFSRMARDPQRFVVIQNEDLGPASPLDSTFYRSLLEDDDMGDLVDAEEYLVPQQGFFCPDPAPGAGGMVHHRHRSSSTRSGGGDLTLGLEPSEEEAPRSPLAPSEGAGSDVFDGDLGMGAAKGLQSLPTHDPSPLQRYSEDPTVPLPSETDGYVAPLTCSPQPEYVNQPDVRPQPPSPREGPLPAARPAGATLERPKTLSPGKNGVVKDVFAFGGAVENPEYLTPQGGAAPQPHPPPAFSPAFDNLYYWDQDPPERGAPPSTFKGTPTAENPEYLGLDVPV

SMILES | IC50 ([1]; read-out: Assay 1 IC50) [nM] | IC50 [2] [nM] | IC50 [3] [µM] | IC50 [4] [nM] | IC50 [5] [µM] | IC50 ([1]; Assay 1 IC50 (nM)) [nM]
Cc1cc(Nc2ncnc3cnc(N(C)CCC(C)(C)O)nc23)ccc1Oc1ccc2c(c1)ncn2C [Example 102, 2-methyl-4-(methyl(8-((3-methyl-4-((1-methyl-1H-benzo[d]imidazol-5-yl)oxy)phenyl)amino)pyrimido[5,4-d]pyrimidin-2-yl)amino)butan-2-ol] | 23.8 | 20.7 | 2.73 | 9.4 | ≥ 5 | –
CO[C@@H]1CCN(c2ncc3ncnc(Nc4ccc(Oc5ccn6ncnc6c5)c(C)c4)c3n2)C1 [Example 395] | 24.6 | 57.6 | ≥ 10 | 898 | ≥ 5 | –
O[C@H]1C[C@@H]2C[C@H]1CN2c1ncc2ncnc(Nc3ccc(Oc4ccn5ncnc5c4)c(Cl)c3)c2n1 [Example 334] | 20.4 | 55.7 | 1.65 | 266 | ≥ 5 | –
Cc1cc(Nc2ncnc3cnc(N(C)CC(O)C(F)(F)F)nc23)ccc1Oc1ccc2c(c1)ncn2C (stereo not drawn) [Example 188, 1,1,1-trifluoro-3-(methyl(8-((3-methyl-4-((1-methyl-1H-benzo[d]imidazol-5-yl)oxy)phenyl)amino)pyrimido[5,4-d]pyrimidin-2-yl)amino)propan-2-ol] | 27.5 | 27.1 | ≥ 10 | 20.5 | ≥ 5 | –
Cc1c(Oc2ccc3c(c2)ncn3C)ccc(Nc2ncnc3cnc(N4CC[C@H](O)C4)nc23)c1F [Example 458] | 13.3 | 28 | 1.63 | 75.2 | ≥ 5 | –
Cn1cnc2cc(Oc3ccc(Nc4ncnc5cnc(N6CC[C@@H](C#N)C6)nc45)cc3Cl)ccc21 [Example 444] | 24.3 | 52.6 | ≥ 10 | 41.7 | ≥ 5 | –
CCON1CCN(c2ncc3ncnc(Nc4ccc(Oc5ccc6c(c5)ncn6C)c(C)c4)c3n2)CC1 [Example 483] | 76.5 | 262 | ≥ 10 | 58.6 | ≥ 5 | –
Cc1cc(Nc2ncnc3cnc(N4CC5CC(C4)O5)nc23)ccc1Oc1ccn2ncnc2c1 [Example 135, N-(4-([1,2,4]triazolo[1,5-a]pyridin-7-yloxy)-3-methylphenyl)-6-(6-oxa-3-azabicyclo[3.1.1]heptan-3-yl)pyrimido[5,4-d]pyrimidin-4-amine] | 26.2 | 45.7 | ≥ 10 | 514 | ≥ 5 | –
Cc1cc(Nc2ncnc3cnc(N4CCN(C)S4(=O)=O)nc23)ccc1Oc1ccc2c(c1)ncn2C [Example 29, 2-methyl-5-(8-((3-methyl-4-((1-methyl-1H-benzo[d]imidazol-5-yl)oxy)phenyl)amino)pyrimido[5,4-d]pyrimidin-2-yl)-1,2,5-thiadiazolidine 1,1-dioxide] | 37.8 | 65.9 | ≥ 10 | 20.6 | ≥ 5 | –
Cc1cc(Nc2ncnc3cnc(N4CCC[C@](C)(O)C4)nc23)ccc1Oc1ccc2c(c1)ncn2C [Example 461] | 20.5 | 31.9 | ≥ 10 | 46.5 | ≥ 5 | –
Cc1cc(Nc2ncnc3cnc(N(C)C[C@H]4COCCO4)nc23)ccc1Oc1ccc2c(c1)ncn2C [Example 413] | 49.7 | 102 | ≥ 10 | 30.8 | ≥ 5 | –
Cc1cc(Nc2ncnc3cnc(N4CC[C@]5(CCO5)C4)nc23)ccc1Oc1ccc2c(c1)ncn2C [Example 375] | 22.8 | 34 | ≥ 10 | 14.9 | ≥ 5 | –
O[C@H]1[C@@H]2C[C@H]1CN(c1ncc3ncnc(Nc4ccc(Oc5ccn6ncnc6c5)c(Cl)c4)c3n1)C2 [Example 336] | 54 | 130 | ≥ 10 | 2260 | ≥ 5 | –
Cc1cc(Nc2ncnc3cnc(O[C@H]4CCN(C)C[C@@H]4F)nc23)ccc1Oc1ccc2c(c1)ncn2C [Example 288] | 79.8 | 262 | ≥ 10 | 94 | ≥ 5 | –
Cc1cc(Nc2ncnc3cnc(N4CCC5COCC54)nc23)ccc1Oc1ccc2c(c1)ncn2C (stereo not drawn) [Example 472] | – | – | – | – | ≥ 5 | –
Cc1c(Oc2ccn3ncnc3c2)ccc(Nc2ncnc3cnc(N4C[C@@H]5C[C@H]4CO5)nc23)c1F [Example 313] | – | – | 4.15 | 1760 | ≥ 5 | –
Cc1cc(Nc2ncnc3cnc(N4CC(C(C)(C)O)C4)nc23)ccc1Oc1ccn2ncnc2c1 [Example 343] | 113 | 120 | – | 1490 | ≥ 5 | –
C[C@@H]1CN(c2ncc3ncnc(Nc4ccc(Oc5ccc6c(c5)ncn6C)c(Cl)c4)c3n2)CCN1C [Example 439] | – | 70 | – | 45.3 | ≥ 5 | 38.7
Cc1cc(Nc2ncnc3cnc(N4C[C@H]5CC[C@@H]4CO5)nc23)ccc1Oc1ccn2ncnc2c1 [Example 127, N-(4-([1,2,4]triazolo[1,5-a]pyridin-7-yloxy)-3-methylphenyl)-6-((1R,4R)-2-oxa-5-azabicyclo[2.2.2]octan-5-yl)pyrimido[5,4-d]pyrimidin-4-amine] | 40.7 | – | ≥ 10 | 151 | ≥ 5 | –
Cc1cc(Nc2ncnc3cnc(N(C)[C@@H]4CCCOC4)nc23)ccc1Oc1ccc2c(c1)ncn2C [Example 473] | – | – | 1.53 | 5.8 | ≥ 5 | –
Cc1cc(Nc2ncnc3cnc(N4CCC(S(C)(=O)=O)CC4)nc23)ccc1Oc1ccc2c(c1)ncn2C [Example 224] | – | – | ≥ 10 | – | ≥ 5 | –
Cc1cc(Nc2ncnc3cnc(N4CC[C@](C)(O)C4)nc23)ccc1Oc1ccc2c(c1)ncn2C [Example 294] | – | – | – | – | ≥ 5 | –
CCOc1ncc2ncnc(Nc3ccc(Oc4ccc5c(c4)ncn5C)c(C)c3)c2n1 [Example 13, 6-ethoxy-N-(3-methyl-4-((1-methyl-1H-benzo[d]imidazol-5-yl)oxy)phenyl)pyrimido[5,4-d]pyrimidin-4-amine] | 35.1 | – | ≥ 10 | 295 | ≥ 5 | –
Cc1cc(Nc2ncnc3cnc(N4CCO[C@]5(CCOC5)C4)nc23)ccc1Oc1ccc2c(c1)ncn2C [Example 357] | – | – | ≥ 10 | – | ≥ 5 | –
Cc1c(Oc2ccc3c(c2)ncn3C)ccc(Nc2ncnc3cnc(N4CC[C@](C)(O)C4)nc23)c1F [Example 310] | – | – | – | – | ≥ 5 | –
